From patent US10791989B2, “Magnetic resonance imaging of poly-L-glutamate” (The Trustees of The University of Pennsylvania, priority 2013, dated 2020) come the findings set out here.

Assay [1] has as its target T1, cathepsin B (Homo sapiens, UniProt P07858). The assay is described as follows: CEST imaging of phantoms (glutamate, PLG, PLG+cathepsin B) on 7T whole-body scanner. The class given is biochemical. Conditions: phantom, room temperature; for CEST contrast at 3 ppm: substance alone. The method, then:
(§1) Both the CEST imaging and MRS were performed.

Assay [2] deals with T1, cathepsin B. The assay is described as follows: Proton MRS of phantoms (PLG+cathepsin B) on 7T whole-body scanner. Conditions: phantom with PLG and cathepsin B. It is filed as biochemical. The protocol:
as §1

In another assay the test system is F98 tumor cells. The note with it: after addition of PLG vs without PLG, 9.4 T. The method, then:
as §1
F98 cell line is known to be aggressive and expresses cathepsin B and other proteases.

With `N[C@@H](CCC(=O)O)C(=O)O` [Glu, glutamate], the “CEST contrast at 3 ppm” value at cathepsin B [1] is “strong CEST contrast”.

Turning to Poly(L-glutamic acid) [PLG], the “CEST contrast at 3 ppm after addition of cathepsin B” value at cathepsin B [1] (PLG with cathepsin B) is “appreciable CEST contrast”. The “CEST contrast at 3 ppm” value on cathepsin B [1] was “No CEST contrast”. Further, the “MR spectrum change with cathepsin B” value on cathepsin B [2] was “cleavage of 2.3 and 4.1 ppm peaks”. The “increase in CEST contrast at 3 ppm” value with F98 tumor cells was −16%.
